These are literature values, as cited in patent US20060088612A1, “Composition for treatment of topical infection and methods of making and using same” (priority 2004, published 2006).

The series deals with HSV. To be noted: topical medication for HSV.

In the case of `CCCCCCCCCCCCCCCCCCCCCCO` [docosanol], the effectiveness versus placebo entry is listed as “no more effective than a placebo”.
